# According to patent US11980596B2 (priority 2017, dated 2024):
# Where “and” joins values, the source holds several entries; their conditions need not be identical. Equal entries are not always repeated. Entries after “also recorded” stand apart in the source; their conditions may differ. Structures can show the parent of a compound that is named as a salt. Marks after values point to notes of the source that are not given here.
# Legend:
# [1] = system: adult female Sprague Dawley rats; details: 3 hours after a single intraperitoneal injection (Jevtovic-Todorovic 2000); cited from earlier work
# pregnant rabbits = assay: Embryo-fetal reproduction study, intranasal ketamine, pregnant rabbits; type: in vivo, rabbit
# Description: (§1) Racemic ketamine was administered intranasally to pregnant rats during the period of organogenesis at doses of 15, 50, and 150 mg/kg/day. The No Observed Adverse Effect level (NOAEL) for embryo-fetal toxicity in rats was the highest dose of 150 mg/kg/day. […] In pregnant rabbits, racemic ketamine was administered intranasally from gestational day 6 to 18 at doses of 10, 30, and 100 mg/kg/day. The high dose was lowered from 100 to 50 mg/kg after 5 days of dosing due to excessive mortality in the pregnant rabbits.
# adult rats = assay: Single-dose neuronal toxicity study, subcutaneous racemic ketamine (label); type: in vivo, rat
# Description: (§2) In a single-dose neuronal toxicity study in adult rats, subcutaneously administered racemic ketamine caused neuronal vacuolation in layer I of the retrosplenial cortex of the brain without neuronal necrosis at a dose of 60 mg/kg. The NOAEL for vacuolation in this study was 15 mg/kg. […] The relevance of these findings to humans is unknown.
# [2] = as above; type: in vivo, rat; details: rat, in vivo, sc; single subcutaneous dose; read-out: NOAEL for vacuolation
# Description: as §2
# mouse lymphoma = assay: In vitro mouse lymphoma test; details: in the presence of metabolic activation
# pregnant rats = assay: Embryo-fetal toxicity, intranasal racemic ketamine, pregnant rats; type: in vivo, rat; details: estimating 50% of the exposure to be from esketamine
# Description: as §1
# [3] = as above; type: in vivo, rat; details: female, rat, in vivo, inhaled or intranasal; intranasal; period of organogenesis
# Description: as §1
# Ames test = details: with or without metabolic activation
# bone marrow = assay: In vivo bone marrow micronucleus test; parameters: species or system mice; details: intraperitoneally-injected
# MDD/TRD subjects = details: 52-week safety study in MDD/TRD subjects (Berman et al., 2011); cited from earlier work
# [4] = Pharmacokinetics of intranasal esketamine in healthy subjects (Example 9)
# Description: Blood samples (4 mL each) for determination of esketamine and noresketamine plasma concentrations were collected into the appropriate collection tube (e.g., Vacutainer®) at timepoints 0.00, 0.12, 0.20, 0.37, 0.53, 0.67, 0.83, 1.00, 1.25, 1.50, 2.00, 3.00, 4.00, 6.00, 9.00, 12.00, 18.00, and 24.00 h. The total amount of blood to be drawn for clinical laboratory tests and PK evaluations is approximately 327 mL.
# Plasma samples were analyzed for esketamine and noresketamine concentrations using the validated, specific and sensitive liquid chromatography coupled to tandem mass spectrometry (LC-MS/MS) achiral method of Example 8.
# Serial PK blood samples (4 mL each) were collected for a 24-hour period from each subject (Periods 1, 2, and 3). […] Statistical Methods 1.6.4.1. Sample Size
# The following key parameters of esketamine and noresketamine in plasma were calculated using noncompartmental methods and actual sampling times: Cmax, tmax, AUClast, AUC∞, t1/2,λ, and λz.
# glutamate NMDA receptor = assay: Affinity for the NMDA receptor in vitro; type: binding
# [5] = Clinical pharmacokinetics of esketamine (label)
# [6] = system: female Sprague-Dawley rats; assay: Single dose neurotoxicity study: mortality, clinical observations, body weight; type: in vivo, rat; details: for Abnormal respiration, incidence / Abnormal respiration: audible respiration, incidence / Abnormal respiration: bradypnoea, incidence / Ataxia, incidence / Catalepsy, incidence / Chromodacryorrhea, incidence / Decreased general activity, incidence / Decubitus, incidence / Increased general activity, incidence / Narrowed palpebral fissure, incidence / Piloerection, incidence / Salivation (out of normal), incidence: single dose
# Description: The injection volume was 5 mL/kg.
# (§3) Body weight and body weight gain were measured daily.
# [7] = system: posterior cingulate gyrus (PCG) and retrosplenial cortex (RSC); assay: Single dose neurotoxicity study: brain histopathology (neuronal necrosis); details: single dose of 72 mg; 48 or 96 hours; hydrochloride
# Description: In order to prepare for brain histopathology examination, all main study animals were perfused at necropsy. Prior to the perfusion, rats were anesthetized with isoflurane. After injection of 0.1 ml heparin, the blood of the rat was flushed out with a physiological saline solution by intraarterial insertion of a needle in the abdominal aorta. Thereafter the rat was perfused with glutaraldehyde 3% in potassium phosphate 0.09M and 1.4% sucrose.
# The vehicle control, positive control, and esketamine HCl-dosed animals were sacrificed at either 48 hours (i.e., the first 12 or 15 rats per group) or 96 hours after the dose administration time (i.e., the last 12 or 15 rats per group). The brain tissue of the vehicle control-, positive control- and esketamine HCl-treated rats were processed at the same time and handled in the same way in batches of 4 or 5 animals per group.
# Brain tissue was sampled and processed routinely. The trimmed and embedded tissue was sectioned and stained with hematoxylin-eosin (HE). Histoprocessing and staining were carried out in three batches of 4 animals per group (each batch thus containing 4 animals from vehicle control-, positive control- and the three esketamine HCl-treated groups). In the single dose study duplicate brain sections were stained with Fluoro-Jade (FJ).
# All tissues showing gross abnormalities were examined macroscopically. […]
# [8] = Solubility of esketamine HCl
# Description: The clinical investigational product is an aqueous solution of the drug substance, esketamine hydrochloride (HCl). This formulation is administered intranasally to patients using a dual nasal spray device, which delivers one spray into each nostril. […] The formulation was stored at 37° C. for stability reasons until dosing.
# [9] = system: female Sprague-Dawley rats; assay: 14-day repeated dose neurotoxicity study: mortality, clinical observations, body weight; type: in vivo, rat; details: 14 days
# Description: as §3
# [10] = system: posterior cingulate gyrus (PCG) and retrosplenial cortex (RSC); assay: 14-day repeated dose neurotoxicity study: brain histopathology (neuronal necrosis); details: up to 54 mg/day; 48 hours after the last instillation; hydrochloride
# Description: The brain tissue of the vehicle control-, positive control- and esketamine HCl-treated rats were processed at the same time and handled in the same way in batches of 4 animals per group.
# Brain tissue was sampled and processed routinely. The trimmed and embedded tissue was sectioned and stained with hematoxylin-eosin (HE). Histoprocessing and staining were carried out in three batches of 4 animals per group (each batch thus containing 4 animals from vehicle control-, positive control- and the three esketamine HCl-treated groups).
# All tissues showing gross abnormalities were examined macroscopically. Histopathological examination was performed on 7 levels of brain tissue according to Bolon (2013. Toxicol. Pathol. 41(7), 1028-1048) from the vehicle control-, positive control-, and high dose esketamine HCl-treated groups in the single dose study, and in all groups in the repeated dose study.
# The microscopic finding of neuronal necrosis in the PCG/RSC of the brain was graded unilaterally according to the number of necrotic neurons observed over the total length of the PCG/RSC structure visible in the tissue section (usually around 3-5 mm) utilizing the following criteria:
# [11] = estimating 50% of the exposure to be from esketamine
# [12] = noresketamine in plasma after esketamine 28 mg intranasal (A), n = 13
# [13] = noresketamine in plasma after esketamine 56 mg intranasal (B), n = 13
# [14] = noresketamine in plasma after esketamine 56 mg intranasal (B), n = 14
# [15] = noresketamine in plasma after esketamine 84 mg intranasal (C), n = 12
# [16] = noresketamine in plasma after esketamine 84 mg intranasal (C), n = 13
compound,measurement,setting,value
CNC1(c2ccccc2Cl)CCCCC1=O (racemic) [ketamine],ED50-value for the induction of neuronal vacuolation in the PCG/RSC,[1],47.5 mg/kg body weight
same,"Esketamine exposure (AUC) at the NOAEL for skeletal malformations, multiple of exposure at MRHD of 84 mg/day",pregnant rabbits,0.3 times
same,"NOAEL for neuronal necrosis, multiple of clinical exposure at the MRHD, AUC",adult rats; [11],10 times
same,"NOAEL for neuronal necrosis, multiple of clinical exposure at the MRHD, Cmax",adult rats; [11],16 times
same,"NOAEL for neuronal vacuolation, multiple of clinical exposure at the MRHD, AUC",adult rats; [11],1.6 times
same,"NOAEL for neuronal vacuolation, multiple of clinical exposure at the MRHD, Cmax",adult rats; [11],4.5 times
same,Dose causing neuronal vacuolation in layer I of the retrosplenial cortex without neuronal necrosis,adult rats; single subcutaneous dose,60 mg/kg
same,NOAEL,[2],15 mg/kg
same,Mutagenicity,mouse lymphoma,positive
same,"Esketamine AUC at the NOAEL, multiple of AUC at the MRHD of 84 mg/day",pregnant rats,12 times
same,NOAEL,[3],150 mg/kg/day
same,Mutagenicity,Ames test,not mutagenic
same,Genotoxicity,bone marrow,did not show genotoxic properties
OCCOCCN1CCN(C2=Nc3ccccc3Sc3ccccc32)CC1 [quetiapine],Discontinuation rate due to adverse events,MDD/TRD subjects,23.7%
N[C@]1(c2ccccc2Cl)CCCCC1=O [noresketamine],AUC (AUClast and AUC∞) variability,[4]; noresketamine,17.0% to 21.3
same,Between-subject variability for Cmax,[4]; noresketamine,25.8% to 33.7
same,"AUClast, mean",[4]; [12],454 ng·h/mL
same,"AUC∞, mean",[4]; [12],508 ng·h/mL
same,"Cmax, mean",[4]; [12],92.8 ng/mL
same,"t1/2, mean",[4]; [12],7.74 h
same,"tmax, median",[4]; [12],1.25 h
same,"AUC∞, mean",[4]; [13],924^c h * ng/mL
same,"t1/2, mean",[4]; [13],7.71^c h
same,"AUClast, mean",[4]; [14],851 ng·h/mL
same,"Cmax, mean",[4]; [14],154 ng/mL
same,"tmax, median",[4]; [14],1.50 h
same,"AUC∞, mean",[4]; [15],1392^b h * ng/mL
same,"t1/2, mean",[4]; [15],7.48^b h
same,"AUClast, mean",[4]; [16],1287 ng·h/mL
same,"Cmax, mean",[4]; [16],241 ng/mL
same,"tmax, median",[4]; [16],1.50 h
same,"Metabolite/Parent Ratio, AUC∞","[4]; noresketamine/esketamine, esketamine 28 mg intranasal (A), n = 12",3.80^b
same,Activity at the NMDA receptor relative to esketamine,glutamate NMDA receptor,less affinity
same,Inhibition of CYP3A4,CYPs and UGTs,weak reversible inhibition
same,"Brain-to-plasma ratio, times lower than that of esketamine","[5]; human, in vivo",4- to 6 times
same,Mean terminal t1/2,[5]; noresketamine in plasma,approximately 8 hours
(+)MK-801 maleate [reference compound],Mortality,"[6]; single subcutaneous dose 1 mg/kg, single dose or repeated dose study",No mortality
"CN[C@]1(c2ccccc2Cl)CCCCC1=O [esketamine HCl, (S)-2-(2-chlorophenyl)-2-(methylamino)cyclohexanone hydrochloride]",Histopathological lesions in the brain,[7],absent; also recorded: no neuropathological lesions
same,"Abnormal respiration, incidence",[6]; 36 mg intranasal,22/24 ***
same,"Abnormal respiration: audible respiration, incidence",[6]; 36 mg intranasal,10/24 ***
same,"Abnormal respiration: bradypnoea, incidence",[6]; 36 mg intranasal,22/24 ***
same,"Ataxia, incidence",[6]; 36 mg intranasal,24/24 ***
same,"Catalepsy, incidence",[6]; 36 mg intranasal,20/24 ***
same,"Chromodacryorrhea, incidence",[6]; 36 mg intranasal,0/24
same,"Decreased general activity, incidence",[6]; 36 mg intranasal,23/24 ***
same,"Decubitus, incidence",[6]; 36 mg intranasal,23/24 ***
same,"Increased general activity, incidence",[6]; 36 mg intranasal,24/24 ***
same,"Narrowed palpebral fissure, incidence",[6]; 36 mg intranasal,7/24**
same,"Piloerection, incidence",[6]; 36 mg intranasal,0/24
same,"Salivation (out of normal), incidence",[6]; 36 mg intranasal,23/24 ***
same,"Duration of severely decreased activity with decubitus, bradypnea, ptosis and catalepsy (anesthesia)","[6]; 36 mg, after the last instillation",15 to 30 min
same,"Abnormal respiration, incidence",[6]; 54 mg intranasal,22/24 ***
same,"Abnormal respiration: audible respiration, incidence",[6]; 54 mg intranasal,3/24
same,"Abnormal respiration: bradypnoea, incidence",[6]; 54 mg intranasal,21/24 ***
same,"Ataxia, incidence",[6]; 54 mg intranasal,24/24 ***
same,"Catalepsy, incidence",[6]; 54 mg intranasal,23/24 ***
same,"Chromodacryorrhea, incidence",[6]; 54 mg intranasal,0/24
same,"Decreased general activity, incidence",[6]; 54 mg intranasal,23/24 ***
same,"Decubitus, incidence",[6]; 54 mg intranasal,23/24 ***
same,"Increased general activity, incidence",[6]; 54 mg intranasal,24/24 ***
same,"Narrowed palpebral fissure, incidence",[6]; 54 mg intranasal,10/24 ***
same,"Piloerection, incidence",[6]; 54 mg intranasal,0/24
same,"Salivation (out of normal), incidence",[6]; 54 mg intranasal,24/24 ***
same,Duration of ataxia after the decrease in activity had subsided,"[6]; 54 mg, hydrochloride",1.5 to 3 h and 1 to 3 h
same,Duration of ataxia after the decrease in activity had subsided,[6]; 72 mg,≥ 3 h
same,"Abnormal respiration, incidence",[6]; 72 mg intranasal,30/30 ***
same,"Abnormal respiration: audible respiration, incidence",[6]; 72 mg intranasal,2/30
same,"Abnormal respiration: bradypnoea, incidence",[6]; 72 mg intranasal,30/30 ***
same,"Catalepsy, incidence",[6]; 72 mg intranasal,30/30 ***
same,"Chromodacryorrhea, incidence",[6]; 72 mg intranasal,0/30
same,"Decreased general activity, incidence",[6]; 72 mg intranasal,30/30 ***
same,"Decubitus, incidence",[6]; 72 mg intranasal,30/30 ***
same,"Increased general activity, incidence",[6]; 72 mg intranasal,29/30 ***
same,"Narrowed palpebral fissure, incidence",[6]; 72 mg intranasal,22/30 ***
same,"Piloerection, incidence",[6]; 72 mg intranasal,0/30
same,"Salivation (out of normal), incidence",[6]; 72 mg intranasal,29/30 ***
same,"Maximum solubility, as base","[8]; room temperature, pH 4.5, factor 1.15",180 mg esketamine base/mL
same,Solubility,"[8]; water, methanol, ethanol","freely soluble in water and in methanol, and soluble in ethanol"
same,"Abnormal respiration, incidence",[9]; 18 mg/day intranasal,2/12
same,"Abnormal respiration: audible respiration, incidence",[9]; 18 mg/day intranasal,2/12
same,"Abnormal respiration: bradypnoea, incidence",[9]; 18 mg/day intranasal,0/12
same,"Ataxia, incidence",[9]; 18 mg/day intranasal,12/12***
same,"Chromodacryorrhea, incidence",[9]; 18 mg/day intranasal,0/12
same,"Decreased general activity, incidence",[9]; 18 mg/day intranasal,5/12
same,"Decubitus, incidence",[9]; 18 mg/day intranasal,0/12
same,"Increased general activity, incidence",[9]; 18 mg/day intranasal,12/12***
same,"Salivation (out of normal), incidence",[9]; 18 mg/day intranasal,12/12***
same,"Abnormal respiration, incidence",[9]; 36 mg/day intranasal,11/12***
same,"Abnormal respiration: audible respiration, incidence",[9]; 36 mg/day intranasal,6/12**
same,"Abnormal respiration: bradypnoea, incidence",[9]; 36 mg/day intranasal,11/12***
same,"Ataxia, incidence",[9]; 36 mg/day intranasal,12/12***
same,"Chromodacryorrhea, incidence",[9]; 36 mg/day intranasal,0/12
same,"Decreased general activity, incidence",[9]; 36 mg/day intranasal,12/12***
same,"Decubitus, incidence",[9]; 36 mg/day intranasal,2/12
same,"Increased general activity, incidence",[9]; 36 mg/day intranasal,12/12***
same,"Salivation (out of normal), incidence",[9]; 36 mg/day intranasal,12/12***
same,"Abnormal respiration, incidence",[9]; 54 mg/day intranasal,12/12***
same,"Abnormal respiration: audible respiration, incidence",[9]; 54 mg/day intranasal,6/12**
same,"Abnormal respiration: bradypnoea, incidence",[9]; 54 mg/day intranasal,12/12***
same,"Ataxia, incidence",[9]; 54 mg/day intranasal,12/12***
same,"Chromodacryorrhea, incidence",[9]; 54 mg/day intranasal,0/12
same,"Decreased general activity, incidence",[9]; 54 mg/day intranasal,12/12***
same,"Decubitus, incidence",[9]; 54 mg/day intranasal,8/12***
same,"Increased general activity, incidence",[9]; 54 mg/day intranasal,12/12***
same,"Salivation (out of normal), incidence",[9]; 54 mg/day intranasal,12/12***
same,Histopathological lesions in the brain,[10],No histopathological lesions
